What was measured:
Assay type in all cases: in vivo
corn (Zea mays) = experiment: Test A postemergence; conditions: Zea mays, post-emergence, 240 h; for Corn plant response rating (crop injury, 0 = no effect, 100 = complete kill) at 125 g/ha: 125 g ai/ha, postemergence, visual injury after approximately 10 d, 0 to 100 scale (0 no effect, 100 complete control)
Summary of the method: (§1)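 Ratings of 0 (no effect) to 100 (complete control) come from visual comparison with untreated controls roughly 10 d after treatment. Test chemicals, formulated in a non-phytotoxic solvent mixture with surfactant, were applied either as a preemergence directed soil spray on seeded soil or postemergence to one- to two-leaf plants 2 to 10 cm tall.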

[1] = tested on: barnyardgrass (Echinochloa crus-galli); experiment: Test A postemergence; conditions: Echinochloa crus-galli, post-emergence, 240 h, read-out: Plant response rating, Barnyardgrass; for pest or weed control at 125 g/ha: 125 g ai/ha, postemergence, visual injury after approximately 10 d, 0 to 100 scale (0 no effect, 100 complete control)
Summary of the method: as §1

[2] = tested on: wheat (Triticum aestivum); experiment: Test A postemergence; conditions: Triticum aestivum, post-emergence, 240 h, read-out: Plant response rating, Wheat
Summary of the method: as §1

[3] = tested on: ryegrass, Italian (Italian ryegrass, Lolium multiflorum); experiment: Test A postemergence; conditions: Lolium multiflorum, post-emergence, 240 h, read-out: Plant response rating, Ryegrass, Italian; for pest or weed control at 125 g/ha: 125 g ai/ha, postemergence, visual injury after approximately 10 d, 0 to 100 scale (0 no effect, 100 complete control)
Summary of the method: as §1

[4] = tested on: ragweed (common ragweed, Ambrosia elatior); experiment: Test A postemergence; conditions: Ambrosia artemisiifolia, post-emergence, 240 h, read-out: Plant response rating, Ragweed; for pest or weed control at 125 g/ha: 125 g ai/ha, postemergence, visual injury after approximately 10 d, 0 to 100 scale (0 no effect, 100 complete control)
Summary of the method: as §1

[5] = tested on: pigweed (Amaranthus retroflexus); experiment: Test A postemergence; conditions: Amaranthus retroflexus, post-emergence, 240 h, read-out: Plant response rating, Pigweed; for pest or weed control at 125 g/ha: 125 g ai/ha, postemergence, visual injury after approximately 10 d, 0 to 100 scale (0 no effect, 100 complete control)
Summary of the method: as §1

[6] = tested on: Galium (catchweed bedstraw, Galium aparine); experiment: Test A postemergence; conditions: Galium, post-emergence, 240 h, read-out: Plant response rating, Galium; for pest or weed control at 125 g/ha: 125 g ai/ha, postemergence, visual injury after approximately 10 d, 0 to 100 scale (0 no effect, 100 complete control)
Summary of the method: as §1

Kochia (Kochia scoparia) [7] = experiment: Test A postemergence; conditions: Bassia scoparia, post-emergence, 240 h, read-out: Plant response rating, Kochia; for pest or weed control at 125 g/ha: 125 g ai/ha, postemergence, visual injury after approximately 10 d, 0 to 100 scale (0 no effect, 100 complete control)
Summary of the method: as §1

[8] = tested on: giant foxtail (Setaria faberii); experiment: Test A postemergence; conditions: Setaria faberi, post-emergence, 240 h, read-out: Plant response rating, Foxtail, Giant; for pest or weed control at 125 g/ha: 125 g ai/ha, postemergence, visual injury after approximately 10 d, 0 to 100 scale (0 no effect, 100 complete control)
Summary of the method: as §1

[9] = tested on: barnyardgrass (Echinochloa crus-galli); experiment: Test A preemergence; conditions: Echinochloa crus-galli, pre-emergence, 240 h; for pest or weed control at 125 g/ha: 125 g ai/ha, preemergence, visual rating after approx. 10 d, 0 to 100 scale where 0 is no effect and 100 is complete control
Summary of the method: as §1

[10] = tested on: ryegrass, Italian (Italian ryegrass, Lolium multiflorum); experiment: Test A preemergence; conditions: Lolium multiflorum, pre-emergence, 240 h; for pest or weed control at 125 g/ha: 125 g ai/ha, preemergence, visual rating after approx. 10 d, 0 to 100 scale where 0 is no effect and 100 is complete control
Summary of the method: as §1

[11] = tested on: ragweed (common ragweed, Ambrosia elatior); experiment: Test A preemergence; conditions: Ambrosia artemisiifolia, pre-emergence, 240 h; for pest or weed control at 125 g/ha: 125 g ai/ha, preemergence, visual rating after approx. 10 d, 0 to 100 scale where 0 is no effect and 100 is complete control
Summary of the method: as §1

[12] = tested on: pigweed (Amaranthus retroflexus); experiment: Test A preemergence; conditions: Amaranthus retroflexus, pre-emergence, 240 h; for pest or weed control at 125 g/ha: 125 g ai/ha, preemergence, visual rating after approx. 10 d, 0 to 100 scale where 0 is no effect and 100 is complete control
Kochia (Kochia scoparia) [13] = experiment: Test A preemergence; conditions: Bassia scoparia, pre-emergence, 240 h; for pest or weed control at 125 g/ha: 125 g ai/ha, preemergence, visual rating after approx. 10 d, 0 to 100 scale where 0 is no effect and 100 is complete control
Summary of the method: as §1

[14] = tested on: giant foxtail (Setaria faberii); experiment: Test A preemergence; conditions: Setaria faberi, pre-emergence, 240 h; for pest or weed control at 125 g/ha: 125 g ai/ha, preemergence, visual rating after approx. 10 d, 0 to 100 scale where 0 is no effect and 100 is complete control
Summary of the method: as §1

[15] = Postemergence, 31 g ai/ha, visual injury after approx. 10 d, 0 to 100 scale, 0 no effect, 100 complete control
[16] = read-out: Plant response rating, Barnyardgrass
[17] = read-out: Plant response rating, Ryegrass, Italian
[18] = read-out: Plant response rating, Ragweed
[19] = read-out: Plant response rating, Pigweed
[20] = read-out: Plant response rating, Kochia
[21] = read-out: Plant response rating, Foxtail, Giant

Compound	Corn plant response rating (crop injury, 0 = no effect, 100 = complete kill) at 125 g/ha (corn (Zea mays))	pest or weed control at 125 g/ha [1]	pest or weed control at 125 g/ha [3]	pest or weed control at 125 g/ha [4]	pest or weed control at 125 g/ha [5]	pest or weed control at 125 g/ha [6]	pest or weed control at 125 g/ha (Kochia (Kochia scoparia) [7])	pest or weed control at 125 g/ha [8]	pest or weed control at 125 g/ha [9, 16]	pest or weed control at 125 g/ha [10, 17]	pest or weed control at 125 g/ha [11, 18]	pest or weed control at 125 g/ha [12, 19]	pest or weed control at 125 g/ha (Kochia (Kochia scoparia) [13]; [20])	pest or weed control at 125 g/ha [14, 21]	further results
CSc1ccccc1NC(=O)[C@H]1C(=O)N(C)C[C@@H]1c1cc(C)c(C)c(C)c1 [Compound 798]	40%	80%	40%	0%	20%	20%	0%	70%	80%	0%	0%	40%	20%	90%	Corn plant response rating (crop injury, 0 = no effect, 100 = complete kill) at 31 g/ha (corn (Zea mays); [15]): 0%; pest or weed control at 31 g/ha [1, 15]: 40%; plant injury at 31 g/ha [2, 15]: 0%; pest or weed control at 31 g/ha [3, 15]: 0%; pest or weed control at 31 g/ha [4, 15]: 0%; pest or weed control at 31 g/ha [5, 15]: 0%; pest or weed control at 31 g/ha [6, 15]: 0%; pest or weed control at 31 g/ha (Kochia (Kochia scoparia) [7]; [15]): 0%; pest or weed control at 31 g/ha [8, 15]: 20%; pest or weed control at 31 g/ha ([9]; Preemergence, 31 g ai/ha, 0 to 100 scale (0 no effect, 100 complete control), read-out: Plant response rating, Barnyardgrass): 20%; pest or weed control at 31 g/ha ([10]; Preemergence, 31 g ai/ha, 0 to 100 scale (0 no effect, 100 complete control), read-out: Plant response rating, Ryegrass, Italian): 0%; pest or weed control at 31 g/ha ([11]; Preemergence, 31 g ai/ha, 0 to 100 scale (0 no effect, 100 complete control), read-out: Plant response rating, Ragweed): 0%; pest or weed control at 31 g/ha ([12]; Preemergence, 31 g ai/ha, 0 to 100 scale (0 no effect, 100 complete control), read-out: Plant response rating, Pigweed): 30%; pest or weed control at 31 g/ha (Kochia (Kochia scoparia) [13]; Preemergence, 31 g ai/ha, 0 to 100 scale (0 no effect, 100 complete control), read-out: Plant response rating, Kochia): 0%; pest or weed control at 31 g/ha ([14]; Preemergence, 31 g ai/ha, 0 to 100 scale (0 no effect, 100 complete control), read-out: Plant response rating, Foxtail, Giant): 70%
CC(F)(F)c1cccc([C@H]2CNC(=O)[C@@H]2C(=O)Nc2ccccc2S(C)(=O)=O)c1 [Compound 780]	40%	60%	0%	0%	0%	50%	30%	60%	80%	0%	40%	0%	40%	90%	plant injury at 125 g/ha ([2]; 125 g ai/ha, postemergence, visual injury after approximately 10 d, 0 to 100 scale (0 no effect, 100 complete control)): 30%; pest or weed control at 500 g/ha ([9]; 500 g ai/ha, Preemergence, visual injury vs untreated controls after approximately 10 d, read-out: Barnyardgrass plant response rating (0 to 100 scale where 0 is no effect and 100 is complete control)): 90%; pest or weed control at 500 g/ha ([10]; 500 g ai/ha, Preemergence, visual injury vs untreated controls after approximately 10 d, read-out: Ryegrass, Italian plant response rating (0 to 100 scale where 0 is no effect and 100 is complete control)): 20%; pest or weed control at 500 g/ha ([11]; 500 g ai/ha, Preemergence, visual injury vs untreated controls after approximately 10 d, read-out: Ragweed plant response rating (0 to 100 scale where 0 is no effect and 100 is complete control)): 70%; pest or weed control at 500 g/ha ([12]; 500 g ai/ha, Preemergence, visual injury vs untreated controls after approximately 10 d, read-out: Pigweed plant response rating (0 to 100 scale where 0 is no effect and 100 is complete control)): 50%; pest or weed control at 500 g/ha (Kochia (Kochia scoparia) [13]; 500 g ai/ha, Preemergence, visual injury vs untreated controls after approximately 10 d, read-out: Kochia plant response rating (0 to 100 scale where 0 is no effect and 100 is complete control)): 80%; pest or weed control at 500 g/ha ([14]; 500 g ai/ha, Preemergence, visual injury vs untreated controls after approximately 10 d, read-out: Foxtail, Giant plant response rating (0 to 100 scale where 0 is no effect and 100 is complete control)): 90%
